Data: patent US20260345488A1, “PHARMACEUTICAL FORMULATIONS” (Gelteq Limited, priority 2023, published 2026)

Assay: not given
Conditions: classification on solubility and permeability; cited from earlier work

| Structure (SMILES) | BCS class |
| --- | --- |
| COc1ccc2cc([C@H](C)C(=O)O)ccc2c1 [Naproxen] | Class II |
| O=C(O)Cc1ccccc1Nc1c(Cl)cccc1Cl [Diclofenac] | class II |
| c1ccc(-c2ccc(C(c3ccccc3)n3ccnc3)cc2)cc1 (centres unmarked) [Bifonazole] | Class IV |
| COCCc1ccc(OCC(O)CNC(C)C)cc1 (centres unmarked) [Metoprolol] | Class I |
| CN/C(=N/CCSCc1nc[nH]c1C)NC#N [Cimetidine] | Class III |
| NS(=O)(=O)c1cc2c(cc1Cl)NCNS2(=O)=O [Hydrochlorothiazide] | class II |

Assay: Compatibility of pH adjustors with the formulation
Assay type: physicochemical
Conditions: in ibuprofen gel formulation
Method: Hydrochloric acid and citric acid were tested as pH adjustors. […] As a consequence, it was selected as the preferred pH adjusting agent. Further details of the ibuprofen gels of the invention are set out in Example 1.

| Structure (SMILES) | compatibility / effect as pH adjustor |
| --- | --- |
| Cl [Hydrochloric acid] | precipitated and was not compatible with the formulation |
| O=C(O)CC(O)(CC(=O)O)C(=O)O [Citric acid] | changed the pH significantly |
